# Data published in patent publication US5962502A, “Polyamidic acid derivatives with antigastrin activity, a method for their preparation, and their pharmaceutical use” (priority 1993, dated 1999).
# Several values for one entry are separate records, joined by “and”; a condition that tells them apart may be missing. Identical values can stand only once.
# Columns and labels:
# CCK-B receptors = conditions: guinea-pig; Knapp et al; cited from earlier work
# central CCK-B receptor = target: T1, central CCK-B receptor (Cavia porcellus, UniProt H0VZC5); assay: Inhibition of the binding of [3-H][N-methyl-N-leucine]CCK-8 to guinea-pig cortical membranes; conditions: for IC50 / inhibition of the binding of [N-methyl-N-leucine]CCK-8, result in words: guinea-pig cortical membranes; for IC50: 150 minutes at 25° C.
# T1 construct: Cerebral cortices of male white guinea-pigs were thus used; from tissue; host or cells: cerebral cortex membranes of male white guinea-pigs
# T1 sequence (H0VZC5 1-426): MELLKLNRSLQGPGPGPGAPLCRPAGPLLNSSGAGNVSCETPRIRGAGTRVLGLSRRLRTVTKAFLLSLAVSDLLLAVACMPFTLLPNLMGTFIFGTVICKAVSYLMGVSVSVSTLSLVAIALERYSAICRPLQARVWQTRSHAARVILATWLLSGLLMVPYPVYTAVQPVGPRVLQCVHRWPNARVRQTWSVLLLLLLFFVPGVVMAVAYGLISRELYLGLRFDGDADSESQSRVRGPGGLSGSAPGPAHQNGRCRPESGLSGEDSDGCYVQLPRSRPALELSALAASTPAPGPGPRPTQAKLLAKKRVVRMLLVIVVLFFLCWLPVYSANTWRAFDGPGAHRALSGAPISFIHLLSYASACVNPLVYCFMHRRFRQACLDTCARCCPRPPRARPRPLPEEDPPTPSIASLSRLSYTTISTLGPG
# In short: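 Male guinea-pig cerebral cortex membranes (about 300 mcg protein/ml) incubated with non-sulphated [3-H]-labelled CCK-8 tracer and compound 150 minutes at 25° C. Pellet radioactivity counted by liquid scintillation; nonspecific binding defined with 5.10^-6 M CCK-8.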
# [1] = target: T2, gastrin receptors or type-B cholecystokinin (CCK-B) receptors (Oryctolagus cuniculus, UniProt P46627); assay: Inhibition of the gastrin-induced increase of cytosolic calcium in rabbit gastric mucous-membrane cells (Fura 2); type: cell-based; conditions: for Ratio IC50 Binding cortex / IC50 (gastric mucous cells): binding values taken from Table 3; for CCK-B-antagonistic activity IC50 (II): data taken from Table 4 (rabbit gastric mucous cells), reprinted in Table 6; for IC50, inhibition of the increase of cytosolic calcium: rabbit gastric mucous cells enriched in parietal cells, gastrin 5×10^-8; for IC50 order of magnitude, peripheral antigastrin activity: rabbit gastric mucous cells
# T2 construct: Rabbit gastric mucous-membrane cells were prepared by conventional techniques; endogenous in cells; host or cells: freshly isolated rabbit gastric mucosal cells, enriched by elutriation to about 70% parietal cells
# T2 sequence (P46627 1-452): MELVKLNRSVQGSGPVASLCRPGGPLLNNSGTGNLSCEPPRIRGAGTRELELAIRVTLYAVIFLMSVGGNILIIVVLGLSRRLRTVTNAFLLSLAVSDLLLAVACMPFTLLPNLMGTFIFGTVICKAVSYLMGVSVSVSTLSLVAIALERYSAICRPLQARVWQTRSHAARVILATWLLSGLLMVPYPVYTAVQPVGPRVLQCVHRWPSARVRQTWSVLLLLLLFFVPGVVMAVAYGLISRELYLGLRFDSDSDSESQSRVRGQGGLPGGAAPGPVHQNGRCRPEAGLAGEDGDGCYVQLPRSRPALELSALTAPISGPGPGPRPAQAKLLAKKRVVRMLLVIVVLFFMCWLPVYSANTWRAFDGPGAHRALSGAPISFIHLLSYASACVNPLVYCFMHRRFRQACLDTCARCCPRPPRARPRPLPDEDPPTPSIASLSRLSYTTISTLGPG
# From the text: The parietal cells of the gastric mucous membrane are responsible for the secretion of HCl. They have specific membrane receptors which can be activated by gastrin and which have been defined as gastrin receptors or type-B cholecystokinin (CCK-B) receptors. Since it has been observed that the activation of the CCK-B receptors by gastrin leads to an increase in the cytosolic levels of calcium ions, a technique involving the measurement of the increase in intracellular calcium induced by gastrin in the presence and in the absence of the compounds of the invention was used as an index of the antigastrin activity of the compounds. Rabbit gastric mucous-membrane cells were prepared by conventional techniques with the use of collagenase and pronase as digestive enzymes. The cellular preparation obtained by the enzymatic digestion was composed of parietal cells, zymogen cells and mucous-membrane cells. […] The cells were then washed and resuspended in a saline solution buffered with HEPES containing, in mM: […] Each measurement was carried out on cells in suspension (0.8×10^6 /ml) at a thermostatically-controlled temperature of 37° C. and with constant magnetic stirring. The fluorescence was recorded with the use of a spectrofluorometer. The operative wavelengths were 340/380 nm for excitation and 505 nm for emission. […] Biol. Chem. 260 (1985), 3440]. […] The results thus obtained for some compounds of the invention are given in Table 4, which also gives an index derived from the ratio between the peripheral antigastrin activity just described and the displacement activity found in the test on binding to the guinea-pig cortex receptors described above.
# [2] = tested on: acid secretion induced by pentagastrin; assay: Acid secretion induced by pentagastrin in the anaesthetized rat; type: in vivo; conditions: for ED50: iv, 1 h, I.V. bolus, pentagastrin 30 mcg/kg/h, read-out: Activity (ID50), inhibition of the acid secretion induced by pentagastrin
# Procedure: The activity of the compounds of the invention against gastric secretion performed by means of a mechanism with an antigastrin effect, was examined in vivo in anaesthetized rats with the use of male animals weighing about 200 g. Gastric secretion was stimulated with pentagastrin and Lai's method [Gut 5, (1964), 327-341 ] was used, with slight modification.
# After tracheotomy, the oesophagus and duodenum were cannulated. A tepid solution (37° C.) of 0.25 mM NaOH was perfused and was passed through the stomach by means of a peristaltic pump at a constant flow-rate of 1 ml/minute. After stabilization for 20 minutes, the stimulant, dissolved in a physiological solution, was perfused for 120 minutes at a dose of 30 mcg/kg/h, in a volume of 0.95 ml/hour. After perfusion for 60 minutes (the basal stimulation), the product under test was administered intravenously (I.V.) as a bolus and perfusion of the stimulant was continued for a further 60 minutes. The acid secretion was recorded continuously as a function of time.
# The activity of the product was evaluated as the percentage reduction of secreted acidity after the administration of the product, in comparison with the basal acidity measured during the first 60 minutes of collection in the presence of pentagastrin alone.
# The antagonistic compounds tested were administered in various doses so that an ID50, that is, the dose (in mg/kg I.V.) which could inhibit the effect of pentagastrin by 50%, could be calculated.
# CCK-A = target: T3, CCK-A (Cavia porcellus, UniProt Q63931); assay: Anti-CCK-A activity on guinea-pig gall bladder stimulated in vitro by CCK-8; conditions: for Ratio I/II (CCK-A IC50 / CCK-B IC50): gall bladder IC50 over gastric mucous cells IC50; for IC50: guinea-pig gall bladder in vitro, CCK-8 10 ng/ml, read-out: CCK-A-antagonistic activity IC50 (I)
# T3 construct: A longitudinal strip of guinea-pig gall-bladder was put in a bath for isolated organs; from tissue; host or cells: guinea-pig gall bladder longitudinal strip
# T3 sequence (Q63931 1-430): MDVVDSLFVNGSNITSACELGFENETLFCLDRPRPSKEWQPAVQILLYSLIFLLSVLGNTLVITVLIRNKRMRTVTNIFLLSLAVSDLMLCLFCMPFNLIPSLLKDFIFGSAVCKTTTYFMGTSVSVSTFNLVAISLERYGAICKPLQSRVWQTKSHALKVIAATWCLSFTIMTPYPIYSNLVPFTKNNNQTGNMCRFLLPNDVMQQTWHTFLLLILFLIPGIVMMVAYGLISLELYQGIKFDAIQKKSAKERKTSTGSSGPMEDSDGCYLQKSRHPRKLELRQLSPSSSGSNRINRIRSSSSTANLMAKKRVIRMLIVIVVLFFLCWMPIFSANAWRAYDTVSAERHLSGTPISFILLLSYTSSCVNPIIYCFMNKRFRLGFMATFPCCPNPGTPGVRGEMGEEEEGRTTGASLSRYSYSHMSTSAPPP
# Procedure: The experimental model used was guinea-pig gall bladder stimulated in vitro by CCK-8, with the use of lorglumide as the reference standard. A longitudinal strip of guinea-pig gall-bladder was put in a bath for isolated organs in the presence of Krebs buffer at a temperature of 32° C., with continuous oxygenation with an oxygen-CO2 mixture (95-[…]). The isometric contractions were detected by means of a force transducer and recorded.
Compound,affinity for the receptors of the cortex (CCK-B) relative to those of the pancreas (CCK-A) (CCK-B receptors),IC50 (central CCK-B receptor) [nM],Ratio IC50 Binding cortex / IC50 (gastric mucous cells) [1],CCK-B-antagonistic activity IC50 (II) [1] [nM],"IC50, inhibition of the increase of cytosolic calcium [1] [nM]",ED50 [2],Ratio I/II (CCK-A IC50 / CCK-B IC50) (CCK-A),IC50 (CCK-A) [nM],"inhibition of the binding of [N-methyl-N-leucine]CCK-8, result in words (central CCK-B receptor)","IC50 order of magnitude, peripheral antigastrin activity [1]",antigastrin activity relative to the diastereoisomer at the carbon atom (**) ([2]; pentagastrin-induced acid secretion),"times more active than the corresponding diastereoisomer at the carbon atom (**) (central CCK-B receptor; binding, guinea-pig cortex) [times]"
non-sulphated [3-H] [N-methyl-N-leucine]CCK-8,approximately 4000 times,–,–,–,–,–,–,–,–,–,–,–
O=C(CC[C@@H](NC(=O)c1cc(Cl)cc(Cl)c1)C(=O)N1CCC2(CCCC2)CC1)N[C@@H](Cc1ccccc1)C(=O)O [Compound 10],–,730,3.7,200,200,28.4 mg/kg and 48.3 µmol/kg,179,35800,–,–,–,–
O=C(CC[C@@H](NC(=O)c1cc(Cl)cc(Cl)c1)C(=O)N1CCC2(CCCCC2)CC1)N[C@H](Cc1c[nH]c2ccccc12)C(=O)O [Compound 30],–,100,12.5,8,8,15.2 mg/kg and 23.7 µmol/kg,1837,14700,potent inhibitors,nanomolar order of magnitude,–,–
O=C(CC[C@@H](NC(=O)c1cc(Cl)cc(Cl)c1)C(=O)N1CCC2(CCCC2)CC1)N[C@@H](Cc1c[nH]c2ccccc12)C(=O)O [Compound 20],–,220,7.3,30,30,10.9 mg/kg and 17.4 µmol/kg,1397,41900,–,–,almost the same antigastrin activity,–
O=C(CC[C@@H](NC(=O)c1cc(Cl)cc(Cl)c1)C(=O)N1CCC2(CCCC2)CC1)Nc1ccccc1C(=O)O [Compound 50],–,450,15.0,–,30,12 mg/kg and 21.4 µmol/kg,160.0,4800,–,–,–,–
O=C(CC[C@@H](NC(=O)c1cc(Cl)cc(Cl)c1)C(=O)N1CCC2(CCCC2)CC1)N[C@H](Cc1cccc2ccccc12)C(=O)O [Compound 25],–,70,10.0,7,7,7.1 mg/kg and 11.1 µmol/kg,1214,8500,potent inhibitors,nanomolar order of magnitude,–,–
O=C(O)C[C@@H](Cc1ccccc1)NC(=O)CC[C@@H](NC(=O)c1cc(Cl)cc(Cl)c1)C(=O)N1CCC2(CCCC2)CC1 [Compound 15],–,220,7.3,30,30,13.5 mg/kg and 22.4 µmol/kg,160,4800,–,–,–,1.5
